Laboratory results from patent publication US9408888B2, “High affinity bivalent helically constrained peptide against cancer” (COUNCIL OF SCIENTIFIC AND INDUSTRIAL RESEARCH, priority 2011, dated 2016).
Values belong to the compound of their own block, whether it stands above or below them. Where a SMILES comes first, the peptide text is derived from it. Bridges are numbered along the chain shown (N, C = ends). Roman numbers before positions name the chains, in order. Where no end group is shown, it is not given here. [ ]: non-standard residue; d: D form. Aib = CC(C)(N)C(=O)O; Ahx = NCCCCCC(=O)O

Experiments:
S100B = biological target: T1, S100B (Homo sapiens, UniProt P04271); assay: Fluorescence anisotropy binding of N-terminal fluorescein labeled peptides to S100B
T1 sequence (P04271 1-92): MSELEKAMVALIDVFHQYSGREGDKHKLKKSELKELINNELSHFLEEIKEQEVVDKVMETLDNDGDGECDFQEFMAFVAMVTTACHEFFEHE
From the text: FIG. 2. (A) Table of some representative peptides synthesized which respectively include pM-53 (SEQ ID No. 6), pBN-53 (SEQ ID No. 7), pBDC-53 (SEQ ID No. 8), pBM-TRTK (SEQ ID No. 2), pBDC-TRTK (two SEQ ID No. 2's cross-linked together with BMH), and pBBD-TRTK (SEQ ID No. 11) and their dissociation constants. Binding isotherm of branch dimeric SEQ ID No. 3 (i.e., SEQ ID No. 11) with (B) S-100B and (C) S100P and (D) branch dimeric SEQ ID No. 5 (i.e., SEQ ID No. 12) with S100B. Fluorescein labeled, 5 nM branch dimeric SEQ ID No. 3 (i.e., SEQ ID No. 11) or branch dimeric SEQ ID No. 5 (i.e., SEQ ID No. 12) was titrated with increasing concentrations of S100B or S100P in 50 mM Tris-HCl buffer, pH 7.5, containing 50 mM NaCl and 10 mM CaCl2 at ambient temperatures which was 25±1 degree C. Anisotropy was determined at each point. The each point is averaging of at least three independent experiments. The line is best fit to a single site binding equation given in description of the invention.
Binding affinity of aib substituted p53 (SEQ ID No. 7) (and all other peptides) was estimated by fluorescence anisotropy using N-terminal fluorescein labeled peptides. […] Since S100B is a dimer, one possible way to enhance the binding is to synthesize a bivalent molecule, which can simultaneously bind to two subunits. SEQ ID No. 7 was dimerized with a properly designed cross-linker through inserted cysteine residues (SEQ ID No. 8). The C-terminal side of the two peptides (bound to two different subunits) comes fairly close and is separated by shallow groove allowing a cross-linker to fit. The length of the cross-linker was chosen such that it spans the separation between the two cysteine residues in the predicted structure.
Binding data of the several of these peptides are shown in FIG. 2 (A) and some of the corresponding binding isotherms are shown FIG. 2(B-D). […] Also synthesized was a mutant branched peptide (SEQ ID No. 12 which is a lysine branch dimeric form of SEQ ID No. 5) bearing two mutations in the interacting residues. […] This peptide will be used as a control in the cellular experiments to be described later.

SK-MEL5 cells = assay: Phase contrast microscopy of SK-MEL5 cells (shape change, blebbing, apoptosis); type: cell-based
From the text: FIG. 3. Phase contrast microscopy of SK-MEL5 cells (A) 2 hrs after treatment with 10 microM SEQ ID No. 10; (B) 18 hrs after treatment with 20 microM branch dimeric SEQ ID No. 5 (i.e., SEQ ID No. 12); (C) 2 hr after treatment with branch dimeric SEQ ID No. 3 (i.e., SEQ ID No. 11) (without the cell penetration tag) and (D) control.
FIG. 6. (A) Phase contrast microscopy of SK-MEL5 cells (Upper panel) 10 microM SEQ ID No. 10 with DR6 tags at two branches (Lower panel), and 10 microM pBBDR-TRTK (i.e., SEQ ID No. 10), pre-treated with 10 microM pifithrin-micro, 1 hr after treatment (Upper panel). (B) Confocal microscopic images of merged p53 (green) and mitotracker (red), Top untreated and bottom, 1 h after treatment with SEQ ID No. 10.
The effect of all the synthesized peptides on several melanoma cell lines which are known to over-express S100B was investigated.
Given the rapidity of apoptosis initiation, the examination of the recently reported direct mitochondrial translocation pathway was also done by the method if Vaseva and Moll, 2009. It has been reported that a small molecule pifithrin-micro blocks this pathway without affecting the canonical transcription-dependent pathway of p53 initiated apoptosis and a close analog, pifithrin-α blocks the canonical pathway without affecting the direct mitochondrial pathway (Strom et al., 2006). […]

[1] = Toxicity in mice, i.v. treatment; type: in vivo, mouse
Description: The effect of SEQ ID No. 10 was tested in a syngenic mouse model of melanoma. […] Histopathology of some key target organs after 8 days of treatment was normal, indicating no significant toxicity. […] Immuno-histochemistry of growth marker PCNA indicates complete loss of this antigen in the residual tumor mass upon treatment, indicating complete loss of proliferating cells (FIG. 7(C)).
Experiments were carried out under protocols approved by the Institutional Animal Ethics Committee and institutional guidelines for the proper use of animals in research were followed. National guidelines had been followed. C57BL/6J female mice (mean initial weight, 20 g) were kept in one mice in one cage at 19° C. to 23° C. with a 12 hour light/12 hour dark cycle. They had free access to water and food. To generate tumor, 1×10^6 B16F10 cells were mixed with Matrigel (BD bioscience) and inoculated S.C. in the right flank of 6 week-old mice. Tumors (typically 2 mm in diameter) were palpable 5 days after subcutaneous injection. Peptide treatments (50 mg/kg body weight) were administered by intravenous tail vein injection on the day tumors became apparent (day 0) and then days 1, 2, 3, 4, 5, 6 and 7. Control mice were treated only with saline vehicle. Mice were weighted, and tumor volumes were calculated with the following formula: π/6×larger diameter×(smaller diameter)^2.

SK-MEL-5 cells = type: cell-based; details: 18 h
Description: FIG. 4. (A) Assay of cell viability using incorporation of ^3H-thymidine after treatment with different concentrations of SEQ ID No. 10 for 18 hrs. (B) Flow cytometry of SK-MEL5 cells before and after treatment with 10 microM SEQ ID No. 10 with DR6 tags at two branches, using Annexin V and Propidium Iodide (lower panel) and forward/side scatter (upper panel).
The effect of SEQ ID No. 10 on viability was also measured by ^3H thymidine uptake (FIG. 4 (A)). […] The apoptosis of SK-Mel5 cells was quantitated using flow cytometry. 49% of cells were determined to be apoptotic and 11% necrotic at 2 hrs using annexin V stain. Corresponding figures for 6 hrs were 57% and 14%, respectively (FIG. 4(B)). From the results presented here and analysis of growth promoting pathways described later-S100B appears to be a generalized growth promoter, when over-expressed.

[2] = upto 50 mg/Kg body weight, i.v.

- Kd (S100B; fluorescence anisotropy, 50 mM Tris-HCl pH 7.5, 50 mM NaCl, 10 mM CaCl2, 25 degree C, read-out: Kd (dissociation constant) for S100B): 135 ± 18.5 nM
Compound: CC[C@H](C)[C@H](NC(=O)[C@H](CCCCN)NC(=O)C(C)(C)NC(=O)[C@H](C)NC(=O)[C@H](CC(=O)O)NC(=O)[C@H](C)NC(=O)[C@H](CCCCN)NC(=O)[C@@H](NC(=O)[C@H](CCCNC(=N)N)NC(=O)[C@@H](N)[C@@H](C)O)[C@@H](C)O)C(=O)N[C@@H](CC(C)C)C(=O)NC(C)(C)C(=O)N[C@@H](CCCCN)C(=O)NCCCCCC(=O)NCCCC[C@H](NC(=O)CCCCCNC(=O)[C@H](CCCCN)NC(=O)C(C)(C)NC(=O)[C@H](CC(C)C)NC(=O)[C@@H](NC(=O)[C@H](CCCCN)NC(=O)C(C)(C)NC(=O)[C@H](C)NC(=O)[C@H](CC(=O)O)NC(=O)[C@H](C)NC(=O)[C@H](CCCCN)NC(=O)[C@@H](NC(=O)[C@H](CCCNC(=N)N)NC(=O)[C@@H](N)[C@@H](C)O)[C@@H](C)O)[C@@H](C)CC)C(N)=O [SEQ ID No. 12, TRTKADABKILBKAhxKAhxKBLIKBADAKTRT-(I5A,W7A)] (I: H-TRTKADA[Aib]KIL[Aib]K[Ahx]K-NH2 / II: H-TRTKADA[Aib]KIL[Aib]K[Ahx]; amide I:15-II:C; N-terminus assumed)

Compound: SEQ ID No. 2 with DR6 tags at two branches: pBM-TRTK dimerised with BMH crosslinker and tagged with hexa-arginine (TRTKIDW[Aib]KIL[Aib]GGGCG-NH2; also: dimer through Cys via BMH crosslinker, DR6 (hexa-arginine) tags on two branches, place not given here)
- potency in inducing apoptosis relative to SEQ ID No. 10 (SK-MEL5 cells; SK-MEL5): nearly as potent as SEQ ID No. 10

- increase in affinity for S100B upon dimerization (S100B; cross-linked dimer versus monomer SEQ ID No. 7): approximately 15 fold
Compound: SEQ ID No. 8: GCGG Modified pBM53 dimerised with BMH crosslinker; monomer QSTBRHBKLMFKTBGGGCG (QST[Aib]RH[Aib]KLMFKT[Aib]GGGCG-NH2; also: dimer via BMH crosslinker)

Compound: NS(=O)(=O)C#Cc1ccccc1 [pifithrin-μ, reference compound]
- effect of pifithrin-μ on peptide-induced apoptosis (SK-MEL5 cells; 10 microM pifithrin pre-treatment, 10 microM peptide, 1 hr): blebbings are not seen

Compound: SEQ ID No. 2: pBM-TRTK dimerised through cysteine residues with BMH cross-linker (TRTKIDW[Aib]KIL[Aib]GGGCG-NH2; also: dimer through Cys via BMH crosslinker)
- binding to S100B relative to parent peptide, in words (S100B; fluorescence anisotropy): approximately an order of magnitude tighter binding

Compound: CC[C@H](C)[C@H](NC(=O)[C@H](CCCCN)NC(=O)[C@@H](NC(=O)[C@H](CCCNC(=N)N)NC(=O)[C@@H](NC(=O)[C@@H](CCCNC(=N)N)NC(=O)[C@@H](CCCNC(=N)N)NC(=O)[C@@H](CCCNC(=N)N)NC(=O)[C@@H](CCCNC(=N)N)NC(=O)[C@@H](CCCNC(=N)N)NC(=O)[C@H](N)CCCNC(=N)N)[C@@H](C)O)[C@@H](C)O)C(=O)N[C@@H](CC(=O)O)C(=O)N[C@@H](Cc1c[nH]c2ccccc12)C(=O)NC(C)(C)C(=O)N[C@@H](CCCCN)C(=O)N[C@H](C(=O)N[C@@H](CC(C)C)C(=O)NC(C)(C)C(=O)N[C@@H](CCCCN)C(=O)NCCCCCC(=O)NCCCC[C@H](NC(=O)CCCCCNC(=O)[C@H](CCCCN)NC(=O)C(C)(C)NC(=O)[C@H](CC(C)C)NC(=O)[C@@H](NC(=O)[C@H](CCCCN)NC(=O)C(C)(C)NC(=O)[C@H](Cc1c[nH]c2ccccc12)NC(=O)[C@H](CC(=O)O)NC(=O)[C@@H](NC(=O)[C@H](CCCCN)NC(=O)[C@@H](NC(=O)[C@H](CCCNC(=N)N)NC(=O)[C@@H](NC(=O)[C@@H](CCCNC(=N)N)NC(=O)[C@@H](CCCNC(=N)N)NC(=O)[C@@H](CCCNC(=N)N)NC(=O)[C@@H](CCCNC(=N)N)NC(=O)[C@@H](CCCNC(=N)N)NC(=O)[C@H](N)CCCNC(=N)N)[C@@H](C)O)[C@@H](C)O)[C@@H](C)CC)[C@@H](C)CC)C(N)=O)[C@@H](C)CC [SEQ ID No. 10, ^DR6 TRTKIDWBKILBKAhxKAhxKBLIKBWDIKTRT-^DR6]
- histopathology of key target organs ([1]; after 8 days of treatment, 50 mg/Kg): normal
- lethality [1, 2]: non-lethal
- toxicity [1, 2]: no demonstrable toxicity
- IC50 (SK-MEL-5 cells): < 2000 nM

- dissociation constant for S100B, in words (S100B; fluorescence anisotropy): micromolar range
Compound: QSTBRHBKLMFKTBG (QST[Aib]RH[Aib]KLMFKT[Aib]G-NH2) [SEQ ID No. 7, P53 Aib substituted monomer peptide]
- binding to S100B relative to parent peptide, in words (S100B; fluorescence anisotropy): somewhat stronger than the unmodified peptide
